ChEMBL document CHEMBL1201862, “PubChem BioAssay data set” (2004)
Where a name gives a salt, the structure may show the parent alone.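 Cultured in 96-well plates, cells were exposed to test compound for 48 hours across five concentrations. GI50 = concentration required for 50% inhibition of growth.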 Active and inactive are the calls of the source. No stated cut-off is given here; in the data, active = GI50 up to about 1.1 µM and inactive = higher.

What was measured:
Test in all cases: DTP human tumour cell line panel, 48 h
KM-20L2 = tested on: KM-20L2
K562 = tested on: K562
M14 = tested on: M14
ACHN = tested on: ACHN
SK-OV-3 = tested on: SK-OV-3
U-251 = tested on: U-251
TK-10 = tested on: TK-10
DLD-1 = tested on: DLD-1
Malme-3M = tested on: Malme-3M
COLO 205 = tested on: COLO 205
RXF 393 = tested on: RXF 393
A549 = tested on: A549
HCT-116 = tested on: HCT-116
IGROV-1 = tested on: IGROV-1
SF-539 = tested on: SF-539
CAKI-1 = tested on: CAKI-1
OVCAR-8 = tested on: OVCAR-8
MDA-N = tested on: MDA-N
DU-145 = tested on: DU-145
T47D = tested on: T47D

Row | Structure (SMILES) | GI50 (KM-20L2) | GI50 (K562) | GI50 (M14) | GI50 (ACHN) | GI50 (SK-OV-3) | GI50 (U-251) | GI50 (TK-10) | GI50 (DLD-1) | GI50 (Malme-3M) | GI50 (COLO 205) | GI50 (RXF 393) | GI50 (A549) | GI50 (HCT-116) | GI50 (IGROV-1) | GI50 (SF-539) | GI50 (CAKI-1) | GI50 (OVCAR-8) | GI50 (MDA-N) | GI50 (DU-145) | GI50 (T47D)
1 | C[C@H](O)CCC(=O)c1ccoc1 | > 100 µM (inactive) | > 100 µM (inactive) | > 100 µM (inactive) | > 100 µM (inactive) | > 100 µM (inactive) | > 100 µM (inactive) | > 100 µM (inactive) | > 100 µM (inactive) | > 100 µM (inactive) | > 100 µM (inactive) | > 100 µM (inactive) | > 100 µM (inactive) | > 100 µM (inactive) | > 100 µM (inactive) | > 100 µM (inactive) | > 100 µM (inactive) | > 100 µM (inactive) | – | – | –
2 | O=C1C(CN2CCOCC2)CCCC1CN1CCOCC1 (centres undefined) | 6.43 µM (inactive) | 0.48 µM (active) | 3.44 µM (inactive) | 1.88 µM (inactive) | 32.1 µM (inactive) | 30.1 µM (inactive) | 3.94 µM (inactive) | 0.67 µM (active) | 0.724 µM (active) | 3.1 µM (inactive) | 1.75 µM (inactive) | 24.1 µM (inactive) | 1.29 µM (inactive) | 8.79 µM (inactive) | 3.92 µM (inactive) | 0.394 µM (active) | 3.41 µM (inactive) | 4.37 µM (inactive) | 17.3 µM (inactive) | 1.13 µM (inactive)
3 | CN(C)CCCN1CCc2c([nH]c3ccccc23)C1c1cccnc1 (centres undefined) | > 100 µM (inactive) | > 100 µM (inactive) | > 100 µM (inactive) | > 100 µM (inactive) | > 100 µM (inactive) | > 100 µM (inactive) | > 100 µM (inactive) | > 100 µM (inactive) | > 100 µM (inactive) | > 100 µM (inactive) | > 100 µM (inactive) | > 100 µM (inactive) | > 100 µM (inactive) | > 100 µM (inactive) | > 100 µM (inactive) | > 100 µM (inactive) | > 100 µM (inactive) | – | – | –
4 | NC(=S)N1N=C2c3ccccc3CC[C@@H]2[C@@H]1c1ccccc1 | 4.22 µM (inactive) | 2 µM (inactive) | 4.4 µM (inactive) | 7.94 µM (inactive) | 9.73 µM (inactive) | 3.98 µM (inactive) | 16.8 µM (inactive) | 6.5 µM (inactive) | 5.4 µM (inactive) | 3.72 µM (inactive) | 4.95 µM (inactive) | 8.59 µM (inactive) | 5.48 µM (inactive) | 12.6 µM (inactive) | 4.88 µM (inactive) | 5.01 µM (inactive) | 9.75 µM (inactive) | – | – | –
5 | CC(C)OCN/C(N)=N\C#N | > 100 µM (inactive) | > 100 µM (inactive) | > 100 µM (inactive) | > 100 µM (inactive) | > 100 µM (inactive) | > 100 µM (inactive) | > 100 µM (inactive) | 59.7 µM (inactive) | > 100 µM (inactive) | 29.1 µM (inactive) | 46.1 µM (inactive) | > 100 µM (inactive) | > 100 µM (inactive) | > 100 µM (inactive) | > 100 µM (inactive) | > 100 µM (inactive) | > 100 µM (inactive) | – | – | –
6 | NS(=O)(=O)c1ccccc1C(=O)N/N=C(\c1nc2ccc([N+](=O)[O-])cc2[nH]c1=O)C(O)c1ccc([N+](=O)[O-])cc1 (centres undefined) | 46.2 µM (inactive) | 56.5 µM (inactive) | > 100 µM (inactive) | 41.6 µM (inactive) | > 100 µM (inactive) | > 100 µM (inactive) | > 100 µM (inactive) | > 100 µM (inactive) | > 100 µM (inactive) | > 100 µM (inactive) | > 100 µM (inactive) | > 100 µM (inactive) | 84.1 µM (inactive) | > 100 µM (inactive) | 49.2 µM (inactive) | > 100 µM (inactive) | > 100 µM (inactive) | – | > 100 µM (inactive) | –
7 | CC(=O)OCCOCBr | > 100 µM (inactive) | > 100 µM (inactive) | > 100 µM (inactive) | > 100 µM (inactive) | > 100 µM (inactive) | > 100 µM (inactive) | > 100 µM (inactive) | > 100 µM (inactive) | > 100 µM (inactive) | > 100 µM (inactive) | > 100 µM (inactive) | > 100 µM (inactive) | > 100 µM (inactive) | > 100 µM (inactive) | > 100 µM (inactive) | > 100 µM (inactive) | > 100 µM (inactive) | – | – | –
8 | COC(=O)/C=C/c1c(CC=C(C)C)ncn1C | 16.7 µM (inactive) | 4.63 µM (inactive) | 16.4 µM (inactive) | > 76.7 µM (inactive) | 47.9 µM (inactive) | 19.1 µM (inactive) | 55.7 µM (inactive) | 29.8 µM (inactive) | > 100 µM (inactive) | 20.9 µM (inactive) | 22.5 µM (inactive) | 70.3 µM (inactive) | 24.3 µM (inactive) | > 100 µM (inactive) | 17.8 µM (inactive) | > 68.1 µM (inactive) | 40.2 µM (inactive) | – | – | –
9 | C=C(CN(C)C)C(=O)c1ccccc1Cl | 30.1 µM (inactive) | 13.1 µM (inactive) | 19 µM (inactive) | 17.6 µM (inactive) | > 100 µM (inactive) | 52.1 µM (inactive) | 21.7 µM (inactive) | 17.3 µM (inactive) | 16.2 µM (inactive) | 13.9 µM (inactive) | 15.4 µM (inactive) | > 100 µM (inactive) | 18.4 µM (inactive) | > 47 µM (inactive) | 24.4 µM (inactive) | 17.1 µM (inactive) | 18.3 µM (inactive) | – | 36.4 µM (inactive) | –
10 | O=C(Nc1ccccc1-c1nn(C(=S)Nc2ccccc2)c(=S)n(C(=S)Nc2ccccc2)c1=O)C(F)(F)F | 36.2 µM (inactive) | 18.8 µM (inactive) | 20.4 µM (inactive) | 24.4 µM (inactive) | > 87.3 µM (inactive) | 25.6 µM (inactive) | 35.3 µM (inactive) | 24.8 µM (inactive) | 30.5 µM (inactive) | 17.5 µM (inactive) | 34 µM (inactive) | 24.4 µM (inactive) | 16.6 µM (inactive) | 21.5 µM (inactive) | 36.1 µM (inactive) | 31.4 µM (inactive) | 23.9 µM (inactive) | – | – | –
11 | CC(=O)OC1CC[C@@]2(C)C(CC[C@]3(C)C2CC=C2[C@@H]4C(C)[C@H](C)CCC4(C)CCC23C)[C@@]1(C)C(=O)O (some centres undefined) | 16.2 µM (inactive) | 25.9 µM (inactive) | 22.3 µM (inactive) | 18.2 µM (inactive) | 18.4 µM (inactive) | 22 µM (inactive) | 18.6 µM (inactive) | 18.7 µM (inactive) | 24.2 µM (inactive) | 20.4 µM (inactive) | 21.7 µM (inactive) | 17.5 µM (inactive) | 16.4 µM (inactive) | 20.6 µM (inactive) | 21.4 µM (inactive) | 18.2 µM (inactive) | 23.6 µM (inactive) | 20.9 µM (inactive) | 17.9 µM (inactive) | 17.9 µM (inactive)
12 | N[C@@H](Cc1ccc(N(CCCl)CCCl)cc1)C(=O)O [MELPHALAN HYDROCHLORIDE] | 76.2 µM (inactive) | 50.7 µM (inactive) | 24.5 µM (inactive) | 9.57 µM (inactive) | 32 µM (inactive) | 27 µM (inactive) | 67.1 µM (inactive) | 47 µM (inactive) | 23.8 µM (inactive) | 43.3 µM (inactive) | 28.9 µM (inactive) | 28.7 µM (inactive) | 42.1 µM (inactive) | – | 16.6 µM (inactive) | 10.9 µM (inactive) | 35.2 µM (inactive) | 46.3 µM (inactive) | 47.2 µM (inactive) | 14.1 µM (inactive)
